Measurements from publication PMC9921851, “Synthesis and Preclinical Evaluation of Three Novel ^68Ga-Labeled Bispecific PSMA/FAP-Targeting Tracers for Prostate Cancer Imaging” (Molecules, 2023).

How the values were obtained:
[1] = system: PSMA-expressing LNCaP tumor xenografts; assay: Ex vivo biodistribution in LNCaP tumor-bearing mice; conditions: LNCaP tumor-bearing mice, 1 h post injection, mean ± SD, n = 4
Description: Biodistribution studies were conducted at 1 h post injection with ^68Ga-labeled AV01017, AV01030, AV01038, HTK03041, and FAPI-04 in LNCaP tumor-bearing mice (Figure 5 and Table S4, Supplementary Materials). The results were consistent with the observation from their PET images. Tumor uptake values for [^68Ga]Ga-AV01017, [^68Ga]Ga-AV01030, [^68Ga]Ga-AV01038, [^68Ga]Ga-HTK03041, and [^68Ga]Ga-FAPI-04 were 4.38 ± 0.55, 5.17 ± 0.51, 4.25 ± 0.86, 23.1 ± 6.11, and 3.15 ± 1.43 %ID/g, respectively. […] Although not statistically significant, the bispecific tracers with a longer linker tend to have a higher blood uptake value (9.24 ± 1.55 %ID/g for [^68Ga]Ga-AV01017; 7.07 ± 0.31%ID/g for [^68Ga]Ga-AV01038; 5.75 ± 0.59 %ID/g for [^68Ga]Ga-AV01030) and a lower tumor-to-blood ratio (0.48 ± 0.11 for [^68Ga]Ga-AV01017; 0.60 ± 0.13 for [^68Ga]Ga-AV01038; 0.89 ± 0.03 for [^68Ga]Ga-AV01030).
(§1) Imaging and biodistribution studies were performed using male NOD.Cg-Rag1tm1Mom Il2rgtm1Wjl/SzJ (NRG) mice following previously published procedures. The experiments were conducted according to the guidelines established by the Canadian Council on Animal Care and approved by Animal Ethics Committee of the University of British Columbia. The mice were briefly sedated by inhalation of 2.5% isoflurane in oxygen, and 100 µL LNCaP (2 × 10^5 cells) or HEK293T:hFAP (8.5 × 10^6 cells) cells were inoculated subcutaneously behind the left shoulder. When the tumor grew to 5–8 mm in diameter over 3–4 weeks and 4–5 weeks for HEK293T:hFAP and LNCaP tumors, respectively, the mice were used for PET/CT imaging and biodistribution studies.
(§2) For biodistribution studies, the mice were injected with the radiotracer (~2–4 MBq) as described above. At 1 h post injection, the mice were euthanized by CO2 inhalation. Blood was withdrawn by cardiac puncture, and organs/tissues of interest were collected, weighed, and counted using a Perkin Elmer (Waltham, MA, USA) Wizard2 2480 automatic gamma counter.

[2] = system: FAP-expressing HEK293T:hFAP tumor xenografts; assay: Ex vivo biodistribution in HEK293T:hFAP tumor-bearing mice; conditions: 1 h post injection, mean ± SD, n = 4
Description: Biodistribution studies were also conducted at 1 h post injection with [^68Ga]Ga-AV01017, [^68Ga]Ga-AV01030, [^68Ga]Ga-AV01038, [^68Ga]Ga-HTK03041, and [^68Ga]Ga-FAPI-04 in HEK293T:hFAP tumor-bearing mice (Figure 6 and Table S5, Supplementary Materials). Tumor uptake values for [^68Ga]Ga-AV01017, [^68Ga]Ga-AV01030, [^68Ga]Ga-AV01038, [^68Ga]Ga-HTK03041, and [^68Ga]Ga-FAPI-04 were 2.99 ± 0.37, 3.69 ± 0.81, 3.64 ± 0.83, 0.62 ± 0.19, and 12.5 ± 2.00 %ID/g, respectively. There was a very low tumor uptake in mice injected with [^68Ga]Ga-HTK03041, showing very minimal FAP expression in this tumor model. The uptake levels of these tracers on the major organs and tissues are consistent with the trends observed in the LNCaP tumor-baring mice (Figure 5 and Supplemental Table S4).
as §1, §2

Q: Which Adrenal glands uptake [1] does the source give for `N#C[C@@H]1CC(F)(F)CN1C(=O)CNC(=O)c1ccnc2ccc(OCc3cn(CC(=O)N[C@@H](CCCCNC(=O)CN4CCN(CC(=O)[O-])CCN(CC(=O)[O-])CCN(CC(=O)[O-])CC4)C(=O)NCC(=O)NC[C@H]4CC[C@H](C(=O)N[C@@H](Cc5c6ccccc6cc6ccccc56)C(=O)NCCCC[C@H](NC(=O)N[C@@H](CCC(=O)O)C(=O)O)C(=O)O)CC4)nn3)cc12.[68Ga+3]` [[^68Ga]Ga-AV01038] here?
A: 3.69 ± 2.54 %ID/g

Q: What about the Blood uptake [1] of the same compound?
A: 7.07 ± 0.31 %ID/g

Q: And the Bone uptake [1]?
A: 4.64 ± 1.70 %ID/g

Q: And the Brain uptake [1]?
A: 0.15 ± 0.02 %ID/g

Q: What about the Fat uptake [1] of the same compound?
A: 1.01 ± 0.28 %ID/g

Q: What about the Heart uptake [1] of the same compound?
A: 3.26 ± 0.24 %ID/g

Q: And the Kidneys uptake [1]?
A: 40.5 ± 8.26 %ID/g

Q: What about the LNCaP tumor uptake [1] of the same compound?
A: 4.25 ± 0.86 %ID/g

Q: What about the Lacrimal glands uptake [1] of the same compound?
A: 0.06 ± 0.13 %ID/g

Q: And the “Large Intestine uptake” value [1]?
A: 1.65 ± 0.31 %ID/g

Q: What about the Liver uptake [1] of the same compound?
A: 2.06 ± 0.13 %ID/g

Q: What about the Lungs uptake [1] of the same compound?
A: 3.74 ± 0.78 %ID/g

Q: And the Muscle uptake [1]?
A: 1.68 ± 0.21 %ID/g

Q: And the Pancreas uptake [1]?
A: 3.91 ± 0.20 %ID/g

Q: And the Salivary glands uptake [1]?
A: 6.41 ± 1.19 %ID/g

Q: What about the Seminal vesicle uptake [1] of the same compound?
A: 1.51 ± 0.08 %ID/g

Q: What about the “Small Intestine uptake” value [1] of the same compound?
A: 2.12 ± 0.24 %ID/g

Q: What about the Spleen uptake [1] of the same compound?
A: 6.77 ± 4.86 %ID/g

Q: And the Stomach uptake [1]?
A: 0.64 ± 0.11 %ID/g

Q: And the Testes uptake [1]?
A: 1.04 ± 0.10 %ID/g

Q: What about the Thyroid uptake [1] of the same compound?
A: 11.1 ± 1.62 %ID/g

Q: And the Tumor/blood uptake ratio [1]?
A: 0.60 ± 0.13

Q: And the Tumor/bone uptake ratio [1]?
A: 0.97 ± 0.30

Q: And the Tumor/kidney uptake ratio [1]?
A: 0.10 ± 0.02

Q: And the Tumor/muscle uptake ratio [1]?
A: 2.52 ± 0.33

Q: What about the Adrenal glands uptake [2] of the same compound?
A: 6.14 ± 3.79 %ID/g

Q: What about the Blood uptake [2] of the same compound?
A: 7.45 ± 1.70 %ID/g

Q: And the Bone uptake [2]?
A: 3.03 ± 1.12 %ID/g

Q: And the Brain uptake [2]?
A: 0.13 ± 0.02 %ID/g

Q: And the Fat uptake [2]?
A: 0.53 ± 0.10 %ID/g

Q: And the “HEK293T:hFAP tumor uptake” value [2]?
A: 3.64 ± 0.83 %ID/g

Q: What about the Heart uptake [2] of the same compound?
A: 2.69 ± 0.22 %ID/g

Q: What about the Kidneys uptake [2] of the same compound?
A: 25.0 ± 1.76 %ID/g

Q: What about the Lacrimal gland uptake [2] of the same compound?
A: 0.22 ± 0.16 %ID/g

Q: And the “Large Intestine uptake” value [2]?
A: 0.99 ± 0.17 %ID/g

Q: What about the Liver uptake [2] of the same compound?
A: 2.16 ± 0.33 %ID/g

Q: And the Lungs uptake [2]?
A: 3.83 ± 0.55 %ID/g

Q: And the Muscle uptake [2]?
A: 1.23 ± 0.11 %ID/g

Q: What about the Pancreas uptake [2] of the same compound?
A: 3.82 ± 1.29 %ID/g

Q: What about the Salivary glands uptake [2] of the same compound?
A: 4.02 ± 0.69 %ID/g

Q: And the Seminal vesicle uptake [2]?
A: 1.15 ± 0.69 %ID/g

Q: What about the “Small Intestine uptake” value [2] of the same compound?
A: 1.70 ± 0.19 %ID/g

Q: And the Spleen uptake [2]?
A: 5.47 ± 1.03 %ID/g

Q: What about the Stomach uptake [2] of the same compound?
A: 0.60 ± 0.18 %ID/g

Q: What about the Testes uptake [2] of the same compound?
A: 0.74 ± 0.09 %ID/g

Q: And the Thyroid uptake [2]?
A: 6.51 ± 1.07 %ID/g

Q: What about the Tumor/blood uptake ratio [2] of the same compound?
A: 0.49 ± 0.37

Q: And the Tumor/bone uptake ratio [2]?
A: 1.17 ± 0.40

Q: And the Tumor/kidney uptake ratio [2]?
A: 0.11 ± 0.02

Q: And the Tumor/muscle uptake ratio [2]?
A: 2.21 ± 0.17

Q: How did the Adrenal glands uptake [1] turn out when `N#C[C@@H]1CC(F)(F)CN1C(=O)CNC(=O)c1ccnc2ccc(OCCCN3CCN(C(=O)CN4CCN(CC(=O)[O-])CCN(CC(=O)[O-])CCN(CC(=O)[O-])CC4)CC3)cc12.[68Ga+3]` [[^68Ga]Ga-FAPI-04, reference compound] was run?
A: 2.16 ± 1.08 %ID/g

Q: What about the Blood uptake [1] of the same compound?
A: 2.16 ± 0.33 %ID/g

Q: What about the Bone uptake [1] of the same compound?
A: 4.27 ± 0.74 %ID/g

Q: And the Brain uptake [1]?
A: 0.06 ± 0.00 %ID/g

Q: And the Fat uptake [1]?
A: 0.55 ± 0.47 %ID/g

Q: What about the Heart uptake [1] of the same compound?
A: 0.70 ± 0.04 %ID/g

Q: And the Kidneys uptake [1]?
A: 2.36 ± 0.38 %ID/g

Q: What about the LNCaP tumor uptake [1] of the same compound?
A: 3.15 ± 1.43 %ID/g

Q: And the Lacrimal glands uptake [1]?
A: 0.06 ± 0.07 %ID/g

Q: And the “Large Intestine uptake” value [1]?
A: 0.73 ± 0.09 %ID/g

Q: And the Liver uptake [1]?
A: 0.76 ± 0.08 %ID/g

Q: What about the Lungs uptake [1] of the same compound?
A: 1.23 ± 0.07 %ID/g

Q: And the Muscle uptake [1]?
A: 1.04 ± 0.20 %ID/g

Q: What about the Pancreas uptake [1] of the same compound?
A: 0.99 ± 0.25 %ID/g

Q: What about the Salivary glands uptake [1] of the same compound?
A: 1.36 ± 0.92 %ID/g

Q: What about the Seminal vesicle uptake [1] of the same compound?
A: 3.72 ± 5.09 %ID/g

Q: And the “Small Intestine uptake” value [1]?
A: 0.74 ± 0.12 %ID/g

Q: And the Spleen uptake [1]?
A: 0.67 ± 0.11 %ID/g

Q: What about the Stomach uptake [1] of the same compound?
A: 0.26 ± 0.04 %ID/g

Q: And the Testes uptake [1]?
A: 0.42 ± 0.04 %ID/g

Q: What about the Thyroid uptake [1] of the same compound?
A: 3.62 ± 1.01 %ID/g

Q: What about the Tumor/blood uptake ratio [1] of the same compound?
A: 1.04 ± 0.42

Q: What about the Tumor/bone uptake ratio [1] of the same compound?
A: 0.51 ± 0.28

Q: What about the Tumor/kidney uptake ratio [1] of the same compound?
A: 0.90 ± 0.28

Q: And the Tumor/muscle uptake ratio [1]?
A: 2.30 ± 0.79

Q: What about the Adrenal glands uptake [2] of the same compound?
A: 1.07 ± 0.32 %ID/g

Q: What about the Blood uptake [2] of the same compound?
A: 1.07 ± 0.08 %ID/g

Q: What about the Bone uptake [2] of the same compound?
A: 3.36 ± 1.09 %ID/g

Q: And the Brain uptake [2]?
A: 0.04 ± 0.00 %ID/g

Q: And the Fat uptake [2]?
A: 0.10 ± 0.01 %ID/g

Q: And the “HEK293T:hFAP tumor uptake” value [2]?
A: 12.5 ± 2.00 %ID/g

Q: What about the Heart uptake [2] of the same compound?
A: 0.34 ± 0.04 %ID/g

Q: What about the Kidneys uptake [2] of the same compound?
A: 1.83 ± 0.16 %ID/g

Q: And the Liver uptake [2]?
A: 0.36 ± 0.02 %ID/g

Q: And the Lungs uptake [2]?
A: 0.74 ± 0.11 %ID/g

Q: What about the Muscle uptake [2] of the same compound?
A: 0.67 ± 0.05 %ID/g

Q: And the Pancreas uptake [2]?
A: 0.37 ± 0.05 %ID/g

Q: And the Seminal vesicle uptake [2]?
A: 0.15 ± 0.04 %ID/g

Q: And the “Small Intestine uptake” value [2]?
A: 0.36 ± 0.08 %ID/g

Q: And the Spleen uptake [2]?
A: 0.56 ± 0.11 %ID/g

Q: And the Stomach uptake [2]?
A: 0.07 ± 0.01 %ID/g

Q: And the Testes uptake [2]?
A: 0.28 ± 0.04 %ID/g

Q: What about the Tumor/blood uptake ratio [2] of the same compound?
A: 11.7 ± 2.04

Q: What about the Tumor/bone uptake ratio [2] of the same compound?
A: 3.93 ± 1.16

Q: What about the Tumor/kidney uptake ratio [2] of the same compound?
A: 6.85 ± 1.33

Q: What about the Tumor/muscle uptake ratio [2] of the same compound?
A: 18.8 ± 4.09
